Patent publication US5753655A, “1-arylsulphonyl, arylcarbonyl and arylthiocarbonyl pyridazino derivatives and methods of preparation” (Ortho Pharmaceutical Corporation, priority 1996, dated 1998)

What was measured:
[1] = molecular target: T1, rabbit uterine cytosolic progestin receptor (PR) (Oryctolagus cuniculus, UniProt P06186); experiment: Progestin Receptor Binding: competitive displacement of 3H-R5020; design: species or system rabbit (New Zealand rabbits); conditions: rabbit uterine cytosol, 4° C., 18 h, read-out: PR: concentration required to displace 50% of H3 labeled R5020 (IC50)
T1 construct: The high speed supernatant fraction is used as the receptor preparation; from tissue; host or cells: uterus of New Zealand rabbits, 200,000 G supernatant (cytosol)
T1 sequence (P06186 1-930): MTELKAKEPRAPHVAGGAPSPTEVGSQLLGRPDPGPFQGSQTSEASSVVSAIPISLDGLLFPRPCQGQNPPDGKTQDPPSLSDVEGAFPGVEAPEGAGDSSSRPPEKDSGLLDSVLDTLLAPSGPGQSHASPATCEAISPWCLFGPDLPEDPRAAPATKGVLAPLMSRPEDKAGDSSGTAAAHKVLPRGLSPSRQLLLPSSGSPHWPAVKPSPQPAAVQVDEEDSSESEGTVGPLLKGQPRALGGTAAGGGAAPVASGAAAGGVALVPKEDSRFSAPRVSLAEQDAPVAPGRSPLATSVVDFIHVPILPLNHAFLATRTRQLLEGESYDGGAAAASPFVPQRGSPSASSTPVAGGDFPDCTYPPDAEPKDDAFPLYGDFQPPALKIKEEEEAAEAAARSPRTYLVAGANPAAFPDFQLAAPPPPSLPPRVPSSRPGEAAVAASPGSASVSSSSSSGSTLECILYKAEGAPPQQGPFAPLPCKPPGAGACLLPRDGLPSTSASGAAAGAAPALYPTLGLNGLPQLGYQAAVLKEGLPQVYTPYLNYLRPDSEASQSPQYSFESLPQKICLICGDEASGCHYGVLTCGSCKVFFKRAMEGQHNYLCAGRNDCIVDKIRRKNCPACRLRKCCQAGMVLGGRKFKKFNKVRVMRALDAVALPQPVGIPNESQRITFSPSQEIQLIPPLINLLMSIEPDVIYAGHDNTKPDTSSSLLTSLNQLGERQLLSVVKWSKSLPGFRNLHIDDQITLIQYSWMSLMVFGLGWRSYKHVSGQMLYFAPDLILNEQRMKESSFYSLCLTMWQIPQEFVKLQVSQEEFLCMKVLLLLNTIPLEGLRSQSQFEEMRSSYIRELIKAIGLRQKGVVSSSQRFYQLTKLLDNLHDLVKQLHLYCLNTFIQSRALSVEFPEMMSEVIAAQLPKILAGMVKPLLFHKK
Experimental: Progestin Receptor Binding
The procedure used is essentially that of J. L. McGuire, C. D. Bariso and A. P. Shroff in Biochemistry 13, 319 (1974).
Uteri from New Zealand rabbits (1.5 to 2.5 kg) are placed in a cold buffer A (0.01M Tris-HCl, pH 8.0, 0.001M EDTA, 0.25M sucrose). The uteri are minced, washed and homogenized in cold buffer A. The homogenate (2 g wet tissue/mL buffer) is centrifuged at 200,000 G for 1 h at 4° C. The high speed supernatant fraction is used as the receptor preparation.
A competitive binding assay is performed by mixing ^3 H-R5020 with the receptor preparation and adding a known amount of unlabelled compound. This mixture is incubated at 4° C. for 18 h. The compounds bound to the receptor are separated from those free in solution using dextran coated charcoal and the amount of isotope bound to the receptor is determined. A depression of 20% or greater from control isotope binding is considered significant.
If there is no value reported in the T47D column that particular compound was not tested.

[2] = system: T47D human breast carcinoma cells; experiment: Ex Vivo Progestational Test: 3H-thymidine incorporation into T47-D cells; format: cell-based; conditions: for EC50: T47D, antagonist, printed with - sign, R5020 (promegestone) induced proliferation, read-out: T47D: antagonist EC50 against R5020 induced proliferation
Experimental: Ex Vivo Progestational Test
The incorporation of ^3 H-thymidine into T47-D cells was used to test the effect of compounds on T47-D cell proliferation.
T47-D (human breast line) was used employing standard sterile techniques. Cells were maintained in RPMI 1640 medium supplemented with fetal bovine serum (10%) and insulin (0.2 I.U./ml). Cells were trypsinized and passaged using standard procedures.
Cells were plated in 96-well microtiter plates by incubation in RPMI medium (phenol red-free, insulin-free, 5% charcoal treated fetal bovine serum) at 37° C. in an atmosphere of 95% air/5% CO2. Approximately 48 hours later, spent medium was replaced by fresh medium containing test compounds dissolved in DMSO (0.1% final concentration) and the cells were incubated for approximately 22 hours. ^3 H-Thymidine was added and the incubation allowed to proceed for another 4 hours. The test was then stopped with the addition of excess unlabeled thymidine. Cells were washed free of soluble thymidine, trypsinized and harvested by standard procedures. The amount of ^3 H-thymidine incorporated into DNA was determined by liquid scintillation counting. The primary standards were promegestone, a potent synthetic progestin and RU486, an antiprogestin. Test compounds were generally screened at concentrations ranging from 0.1 to 1000 nM. A compound was considered active if it stimulated or inhibited thymidine incorporation. Results were expressed as the concentration of test compounds needed to increase proliferation 2 times over control (SC200) or the concentration needed to inhibit promegestone induced proliferation by 50% (EC50). A value less than 1000 nM was considered active.
Aspects of the application of the procedure used are described in the following: C. Christensen, D. Gunter, D. Saunders and V. Malviya, Gynecol. Oncol., 28, 25 (1987); J. Puzas, R. Drivdahl, G. Howard and D. Baylink, Proc. Soc. Exp. Biol. Med., 166, 113 (1981); and I. Keydar, L. Chen, S. Karby, F. Weiss, J. Delarea, M. Raduy, S. Chaitcik and H. Brenner, Eur. J. Cancer, 15, 659 (1979). […]

TE85 human bone cells = experiment: Bone cell proliferation (TE85 cells); format: cell-based; conditions: average at 5 concentrations
Source text: A similar method was used to measure the effect of test compounds on TE85 human bone cells.
Tables 2 and 3 show several examples of the invention with molecular formulas, melting points, and activity expressed as the average increase in bone cell proliferation at 5 concentrations (CP) or as the concentration of compound in nanomoles per liter (×10^-9 M) required to displace 50% of I^125 labeled vinyl nortestosterone (VNT) from the human bone progestin receptor (BPR) (IC50). If there is no value reported in the CP column that particular compound was not tested.

Row | IC50 [1] | SMILES | CP: average increase in bone cell proliferation at 5 concentrations (TE85 human bone cells) | other results
1 | 76 nM | O=S(=O)(c1ccc(I)cc1)N1CCC2CCCc3c(Br)cccc3C2=N1 (stereo not shown) [Example 1, 8-Bromo-3,4,4a,5,6,7-hexahydro-2-(4-iodobenzenesulfonyl)-2H-benzo[6,7]cyclohepta[1,2c]pyridazine] | – | –
2 | 10 nM | O=S(=O)(c1ccc(I)cc1)N1CCC2CCc3c(Br)cccc3C2=N1 (stereo not shown) [Example 2, 8-Bromo-3,4-diazo-1,2,3,9,10,10a-hexahydro-3-(4-iodobenzenesulfonyl)phenanthrene] | – | –
3 | 2.4 nM | O=S(=O)(c1ccc(I)cc1)N1CCC2CCc3c(ccc(Br)c3Br)C2=N1 (stereo not shown) [Example 3, 7,8-Dibromo-3,4-diazo-1,2,3,9,10,10a-hexahydro-3-(4-iodobenzenesulfonyl)phenanthrene] | – | EC (2-fold above control) ([2]; agonist, printed with + sign, T47D proliferation, 3H-thymidine, read-out: T47D: agonist SC200 (concentration stimulating 2fold above control)): 0.337 µM
4 | 8.3 nM | O=S(=O)(c1ccc(I)cc1)N1CCC2CCc3cc(Cl)ccc3C2=N1 (stereo not shown) [Example 4, 7-Chloro-3,4-diazo-1,2,3,9,10,10a-hexahydro-3-(4-iodobenzenesulfonyl)phenanthrene] | – | EC50 [2]: 654 nM
5 | 34 nM | O=S(=O)(c1cc(Cl)ccc1Cl)N1CCC2CCc3cc(Cl)ccc3C2=N1 (stereo not shown) [Example 5, 7-Chloro-3,4-diazo-1,2,3,9,10,10a-hexahydro-3-(2,5-dichlorobenzenesulfonyl)phenanthrene] | – | EC50 [2]: 495 nM
6 | – | O=C(c1ccc(Cl)c(Cl)c1)N1CCC2CCc3ccccc3C2=N1 (stereo not shown) [Example 6, 3-(3,4-dichlorobenzoyl)-3,4-diazo-1,2,3,9,10,10a-hexahydrophenanthrene] | 115 | –
7 | – | O=C(c1cc(Cl)cc(Cl)c1)N1CCC2CCCc3ccccc3C2=N1 (stereo not shown) [Example 7, 2-(3,5-dichlorobenzoyl)-3,4,4a,5,6,7-hexahydro-2H-benzo[6,7]cyclohepta[1,2c]pyridazine] | 120 | –
8 | – | O=C(c1ccc(Cl)c(Cl)c1)N1CCC2CCCc3ccccc3C2=N1 (stereo not shown) [Example 9, 2-(3,4-dichlorobenzoyl)-3,4,4a,5,6,7-hexahydro-2H-benzo[6,7]cyclohepta[1,2c]pyridazine] | 123 | –
9 | – | O=C(c1ccc(F)c(F)c1)N1CCC2CCc3ccccc3C2=N1 (stereo not shown) [Example 10, 3-(3,4-difluorobenzoyl)-3,4-diazo-1,2,3,9,10,10a-hexahydrophenanthrene] | 112 | –
10 | – | O=C(c1cc(Cl)cc(Cl)c1)N1CCC2CCc3ccccc3C2=N1 (stereo not shown) [Example 11, 3-(3,5-dichlorobenzoyl)-3,4-diazo-1,2,3,9,10,10a-hexahydrophenanthrene] | 113 | –
11 | – | O=C(c1ccc(Cl)c(Cl)c1)N1CCC2COc3ccccc3C2=N1 (stereo not shown) [Example 12, 3-(3,4-dichlorobenzoyl)-3,4-diazo-9-oxa-1,2,3,9,10,10a-hexahydrophenanthren] | 107 | –
12 | – | S=C(c1cc(Cl)cc(Cl)c1)N1CCC2CCCc3ccccc3C2=N1 (stereo not shown) [Example 15, 2-(3,5-dichlorothiobenzoyl)-3,4,4a,5,6,7-hexahydro-2H-benzo[6,7]cyclohepta[1,2c]pyridazine] | 109 | –
13 | – | Fc1ccc(C(=S)N2CCC3CCCc4ccccc4C3=N2)cc1F (stereo not shown) [Example 16, 2-(3,4-difluorothiobenzoyl)-3,4,4a,5,6,7-hexahydro-2H-benzo[6,7]cyclohepta[1,2c]pyridazine] | 111 | –
14 | – | S=C(c1ccc(Cl)c(Cl)c1)N1CCC2CCCc3ccccc3C2=N1 (stereo not shown) [Example 17, 2-(3,4-dichlorothiobenzoyl)-3,4,4a,5,6,7-hexahydro-2H-benzo[6,7]cyclohepta[1,2c]pyridazine] | 115 | –
15 | – | S=C(c1ccc(Cl)c(Cl)c1)N1CCC2CCc3ccccc3C2=N1 (stereo not shown) [Example 19, 3-(3,4-dichlorothiobenzoyl)-3,4-diazo-1,2,3,9,10,10a-hexahydrophenanthrene] | 87 | –
16 | – | S=C(c1cc(Cl)cc(Cl)c1)N1CCC2CCc3ccccc3C2=N1 (stereo not shown) [Example 20, 3-(3,5-dichlorothiobenzoyl)-3,4-diazo-1,2,3,9,10,10a-hexahydrophenanthrene] | 103 | –
